What was measured:
[1] = molecular target: T1, Avi-KRAS G12D (2-169) GTP/RAF1 RBD-3xFLAG (51-131) (Homo sapiens, UniProt P01116, G12D); assay: Raf1-KRAS G12D-GTP disruption HTRF assay (Biological Example 3); format: binding; details: KRAS G12D, GTP-loaded
T1 construct: Avi-KRAS G12D (2-169)
Method in brief: (§1)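 An HTRF assay measured disruption of 50 nM Avi-KRAS (2-169)-GTP (WT, G12C, G12D or G12V) bound to RAF1 RBD-3xFLAG (51-131). Buffer was Tris pH 7.5 with 5 mM MgCl2 and 10% DMSO. Compounds (30–0.005 μM, 3-fold, 10 points) were incubated 1 h at room temperature, and activity is given as % of DMSO.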

[2] = molecular target: T2, Avi-KRAS WT (1-169) GppNHp/RAF1 RBD-3xFLAG (52-151) (Homo sapiens, UniProt P01116); assay: Raf1-KRAS WT-GppNHP disruption HTRF assay (Biological Example 1); format: binding; details: KRAS WT-GppNHp/RAF1 RBD HTRF
T2 construct: Avi-KRAS WT (1-169)
Method in brief: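 Measured with a KRAS/RAF1 HTRF assay at pH 7.5 in 10% DMSO, with two 1 h room-temperature incubations with shaking.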

[3] = molecular target: T3, Avi-KRAS WT (2-169) GTP/RAF1 RBD-3xFLAG (51-131) (Homo sapiens, UniProt P01116); assay: Raf1-KRAS WT-GTP disruption HTRF assay (Biological Example 3); format: binding; details: KRAS WT, GTP-loaded
T3 construct: Avi-KRAS WT (2-169)
Method in brief: as §1

[4] = tested on: GP2d cells (KRAS G12D); assay: Cell-based pERK HTRF assay in GP2d cell (Biological Example 2); details: GP2d, GP2d (KRAS G12D) cells
Method in brief: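 HTRF read-out of pERK (excitation 320 nm, emission 615 nm) after lysates sat 4–24 h at room temperature with Eu cryptate and d2 antibodies.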

T1 sequence (P01116 2-169 isoform P01116-2 G12D): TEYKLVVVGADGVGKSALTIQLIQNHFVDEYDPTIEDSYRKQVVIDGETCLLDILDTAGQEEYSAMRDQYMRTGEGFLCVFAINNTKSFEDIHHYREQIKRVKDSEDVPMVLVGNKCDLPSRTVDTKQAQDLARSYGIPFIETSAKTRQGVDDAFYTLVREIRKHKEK
T2 sequence (P01116 1-169 isoform P01116-2): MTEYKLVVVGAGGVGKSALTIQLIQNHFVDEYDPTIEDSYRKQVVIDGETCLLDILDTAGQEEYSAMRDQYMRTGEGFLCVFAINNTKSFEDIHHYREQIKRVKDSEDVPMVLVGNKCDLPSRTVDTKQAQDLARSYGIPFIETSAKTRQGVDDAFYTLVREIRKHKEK
T3 sequence (P01116 2-169 isoform P01116-2): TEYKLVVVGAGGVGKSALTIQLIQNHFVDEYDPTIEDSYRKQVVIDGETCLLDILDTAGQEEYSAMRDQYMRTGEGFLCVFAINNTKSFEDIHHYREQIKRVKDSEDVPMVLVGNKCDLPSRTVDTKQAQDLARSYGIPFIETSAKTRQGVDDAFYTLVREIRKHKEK

IC50 [1] [nM]	IC50 [2] [nM]	IC50 [3] [nM]	IC50 [4] [nM]	IC50 ([4]; pERK HTRF) [nM]	SMILES
100 to 1000	100 to 1000	100 to 1000	< 100	< 100	CCN(c1nc(OC[C@@]23CCCN2C[C@H](F)C3)nc2c(F)c(-c3ccc(F)c4sc(N)c(C#N)c34)c(C(F)(F)F)cc12)[C@@H]1C[C@H](C)N(C(C)=O)C1 (atropisomer, axis not shown) [Compound 534]
≤ 100	< 100	≤ 100	< 100	< 100	CCN(c1nc(OC[C@@]23CCCN2C[C@H](F)C3)nc2c(F)c(-c3ccc(F)c4sc(N)c(C#N)c34)c(C(F)(F)F)cc12)[C@H]1C[C@H]2COC(=O)N2C1 (atropisomer, axis not shown; (aS)) [Compound 518, 2-amino-4-((S)-4-(ethyl((6S,7aS)-3-oxotetrahydro-1H,3H-pyrrolo[1,2-c]oxazol-6-yl)amino)-8-fluoro-2-(((2R,7aS)-2-fluorotetrahydro-1H-pyrrolizin-7a(5H)-yl)methoxy)-6-(trifluoromethyl)quinazolin-7-yl)-7-fluorobenzo[b]thiophene-3-carbonitrile]
≤ 100	< 100	100 to 1000	< 100	< 100	CCN(c1nc(OC[C@@]23CCCN2C[C@H](F)C3)nc2c(F)c(-c3ccc(F)c4sc(N)c(C#N)c34)c(C(F)(F)F)cc12)[C@H]1C[C@H](C)N(C(=O)COC)C1 (atropisomer, axis not shown) [Compound 538]
100 to 1000	100 to 1000	100 to 1000	< 100	< 100	CCC(=O)N1C[C@H](N(CC)c2nc(OC[C@@]34CCCN3C[C@H](F)C4)nc3c(F)c(-c4ccc(F)c5sc(N)c(C#N)c45)c(C(F)(F)F)cc23)C[C@@H]1C (atropisomer, axis not shown) [Compound 533]

More lines, now with the values behind:

SMILES	IC50 [1] [nM]	IC50 [2] [nM]	IC50 [3] [nM]	IC50 [4] [nM]	IC50 ([4]; pERK HTRF) [nM]
CCN(c1nc(OC[C@@]23CCCN2C[C@H](F)C3)nc2c(F)c(-c3ccc(F)c4sc(N)c(C#N)c34)c(C(F)(F)F)cc12)C1C[C@@H](C)N(C(=O)C2CC2)C1 (stereo partly drawn) [Compound 516]	100 to 1000	100 to 1000	100 to 1000	< 100	< 100
CCN(c1nc(OC[C@@]23CCCN2C[C@H](F)C3)nc2c(F)c(-c3ccc(F)c4sc(N)c(C#N)c34)c(C(F)(F)F)cc12)[C@@H]1C[C@@H]2CCC(=O)N2C1 [Compound 511]	1000 to 10000	100 to 1000	100 to 1000	< 100	< 100

From US20260042764A1, “COMPOSITIONS AND METHODS FOR INHIBITION OF KRAS” (TheRas, Inc., priority 2022, published 2026)
